Assay results reported in ChEMBL document CHEMBL1201862, “PubChem BioAssay data set” (2004).
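The compound was tested at five concentrations on cells cultured in 96-well plates, with a 48-hour exposure period. Abbreviation: GI50, concentration required for 50% inhibition of growth.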 Calls of active or inactive are those of the source. Cut-off read from the data, not from the text of the source: active = GI50 up to about 1.1 µM and inactive = higher.

How the values were obtained:
Assay in all cases: inhibition of tumour cell growth, NCI panel, 48 h
XF498 = test system: XF498
KM-20L2 = test system: KM-20L2
DMS-273 = test system: DMS-273
M19-MEL = test system: M19-MEL
LXFL 529 = test system: LXFL 529
SNB-78 = test system: SNB-78
HOP-18 = test system: HOP-18
DMS-114 = test system: DMS-114
RXF 631 = test system: RXF 631

Compound | GI50 (XF498) | GI50 (KM-20L2) | GI50 (DMS-273) | GI50 (M19-MEL) | GI50 (LXFL 529) | GI50 (SNB-78) | GI50 (HOP-18) | GI50 (DMS-114) | GI50 (RXF 631)
CC(=O)Nc1ccc(C(=O)NN2C(=O)C(Cl)C2c2ccc([N+](=O)[O-])cc2)cc1 (configuration not stated) | > 100 µM (inactive) | > 100 µM (inactive) | > 100 µM (inactive) | > 100 µM (inactive) | > 100 µM (inactive) | > 100 µM (inactive) |  |  | 
CCOC(=O)NC(=O)c1cn(CCN2CCNCC2)c(=O)[nH]c1=O | > 100 µM (inactive) |  |  | > 100 µM (inactive) | > 100 µM (inactive) | > 100 µM (inactive) | > 100 µM (inactive) | > 100 µM (inactive) | 
N=c1oc2c(O)c(O)ccc2cc1C(N)=O | 25.2 µM (inactive) | > 100 µM (inactive) | > 100 µM (inactive) | 21.3 µM (inactive) | 31.6 µM (inactive) | > 100 µM (inactive) |  | 35.4 µM (inactive) | 
NC(CCC(=O)NC(CSC(=O)N(O)c1ccccc1)C(=O)NCC(=O)O)C(=O)O (configuration not stated) |  | > 1000 µM (inactive) | > 1000 µM (inactive) | > 1000 µM (inactive) | > 1000 µM (inactive) | > 1000 µM (inactive) |  | > 1000 µM (inactive) | 
O=C1c2ccsc2C(=O)c2sc(CO)cc21 | 0.352 µM (active) | 0.182 µM (active) | 0.0327 µM (active) |  | 0.161 µM (active) | 0.322 µM (active) | 0.0349 µM (active) |  | 
C=C(CN(C)C)C(=O)c1ccc(C)cc1C | 12 µM (inactive) | 19.9 µM (inactive) | 18.2 µM (inactive) | 18.7 µM (inactive) | 12.5 µM (inactive) | 22.9 µM (inactive) | 16 µM (inactive) | 21.6 µM (inactive) | 20.4 µM (inactive)
CCOC(=O)C1=C(O)C(=O)c2cc(OC)ccc2C1=O |  | > 100 µM (inactive) | > 100 µM (inactive) | 20.7 µM (inactive) |  | > 100 µM (inactive) | 4.51 µM (inactive) | > 100 µM (inactive) | 
Nc1ncnc2c1ncn2C1OC(CSC(F)F)C(O)C1O (configuration not stated) |  | > 100 µM (inactive) | > 100 µM (inactive) |  | > 100 µM (inactive) | > 100 µM (inactive) | > 100 µM (inactive) | > 100 µM (inactive) | > 100 µM (inactive)
COc1ccc(/C(Cl)=C(\C=O)c2ccc(Br)cc2)cc1OC | 9.33 µM (inactive) | > 100 µM (inactive) | > 100 µM (inactive) | > 100 µM (inactive) | > 100 µM (inactive) | 25.4 µM (inactive) | 48.4 µM (inactive) |  | > 62.4 µM (inactive)
OC1CC(O)O[C@H](c2ccccc2)C1 (some centres not stated) |  | > 100 µM (inactive) | > 100 µM (inactive) | > 100 µM (inactive) | > 100 µM (inactive) | > 100 µM (inactive) | > 100 µM (inactive) |  | 
COc1cc2c3c(c1OC)C(=O)C=C3N(S(=O)(=O)c1ccc(C)cc1)CC2 | 72.9 µM (inactive) | > 100 µM (inactive) | > 100 µM (inactive) | > 100 µM (inactive) | > 100 µM (inactive) | > 100 µM (inactive) | > 100 µM (inactive) | > 100 µM (inactive) | 
CC(C)(C)C#COC(=O)c1ccccc1 |  | > 100 µM (inactive) |  | > 100 µM (inactive) | > 100 µM (inactive) | > 100 µM (inactive) |  | > 100 µM (inactive) | 
O=S1(=O)CS(=O)(=O)OCCCCCO1 |  | > 100 µM (inactive) | > 100 µM (inactive) | > 100 µM (inactive) | > 100 µM (inactive) | > 100 µM (inactive) | > 100 µM (inactive) | > 100 µM (inactive) | > 100 µM (inactive)
C[C@H]1[C@H](C)CC[C@]2(C(=O)O)CCC3(COC(=O)/C=C/c4ccc(O)cc4)C(=CCC4[C@@]5(C)CC[C@H](O)C(C)(C)C5CC[C@]43C)[C@H]12 (some centres not stated) |  | 4.83 µM (inactive) | 4.76 µM (inactive) | 22.3 µM (inactive) | 3.83 µM (inactive) | 43.8 µM (inactive) | 18.3 µM (inactive) | 3.72 µM (inactive) | 7.55 µM (inactive)
CCOc1ccc2nc(NC(=O)C(=O)C(C#N)CC(C)(C)C=O)sc2c1 (configuration not stated) | > 100 µM (inactive) | > 100 µM (inactive) | 18.7 µM (inactive) | 61.2 µM (inactive) | > 100 µM (inactive) | > 100 µM (inactive) | > 100 µM (inactive) | 35.6 µM (inactive) | > 100 µM (inactive)
CCOC(=O)C1C(=O)C(=O)N2CCc3c([nH]c4ccccc34)C12 (configuration not stated) |  | > 100 µM (inactive) |  | > 100 µM (inactive) | > 100 µM (inactive) |  |  | > 100 µM (inactive) | 
Cc1ccc(/C=C(\C#N)c2ccccc2)cc1 |  | > 100 µM (inactive) | > 100 µM (inactive) | > 100 µM (inactive) | > 100 µM (inactive) | > 100 µM (inactive) | > 100 µM (inactive) | > 100 µM (inactive) | 
Nc1ccc(C2=Nc3ccccc3SC(c3ccccc3O)C2)cc1 (configuration not stated) | 16.3 µM (inactive) | > 100 µM (inactive) | 54.5 µM (inactive) | 50 µM (inactive) | 22 µM (inactive) |  | > 100 µM (inactive) | 15.7 µM (inactive) | 68.2 µM (inactive)
Cc1cn(C2CC(CCCO)C(CO)O2)c(=O)[nH]c1=O (configuration not stated) | > 100 µM (inactive) | > 100 µM (inactive) | > 100 µM (inactive) | > 100 µM (inactive) | > 100 µM (inactive) |  |  | > 100 µM (inactive) | 
C[N+]1(C)C/C(=C\c2ccc(O)cc2)C(=O)/C(=C/c2ccc(O)cc2)C1 |  | 61.4 µM (inactive) | 53 µM (inactive) | > 100 µM (inactive) | 60.5 µM (inactive) | > 100 µM (inactive) | > 100 µM (inactive) | 21.4 µM (inactive) | 
CC(=O)OC1C[C@H]2C(OC(=O)c3ccccc3)C3C4(OC(C)=O)COC4C[C@H](OC(C)=O)[C@@]3(C)C(OC(C)=O)[C@H](OC(C)=O)C(=C1C)C2(C)C (some centres not stated) | 19.8 µM (inactive) | 59 µM (inactive) | 24.9 µM (inactive) | 57.9 µM (inactive) | 22.3 µM (inactive) | 37.9 µM (inactive) | 20.1 µM (inactive) | 22.2 µM (inactive) | 
CN1C(=O)c2cccc3c([N+](=O)[O-])ccc(c23)C1=O |  | 5.7 µM (inactive) | 4.23 µM (inactive) | 10.4 µM (inactive) | 1.46 µM (inactive) | 14 µM (inactive) | 17.1 µM (inactive) | 4.1 µM (inactive) | 2.58 µM (inactive)
Cc1c2cc[n+](C)cc2c(C)c2c1[nH]c1ccc(Oc3ccccc3)cc12 |  | 1.14 µM (inactive) | 0.596 µM (active) |  | 0.282 µM (active) |  |  |  | 
Cc1ccc(S(=O)(=O)ON/N=C2/C3OC3[C@@H]3CCCC[C@H]23)cc1 (some centres not stated) | > 100 µM (inactive) | > 100 µM (inactive) | > 100 µM (inactive) | > 100 µM (inactive) | > 100 µM (inactive) |  | > 100 µM (inactive) |  | 
Cc1c(C(=O)c2ccccc2C(=O)O)c2ccccc2n1C | > 100 µM (inactive) | > 100 µM (inactive) | > 100 µM (inactive) | > 100 µM (inactive) | > 100 µM (inactive) | > 100 µM (inactive) |  | > 100 µM (inactive) | 
CC(C)N(C(=O)C12C3C4C1C1C4(C#N)C3C12C(=O)O)C(C)C (configuration not stated) | > 100 µM (inactive) | > 100 µM (inactive) | > 100 µM (inactive) | > 100 µM (inactive) | > 100 µM (inactive) | > 100 µM (inactive) | > 100 µM (inactive) | > 100 µM (inactive) | > 100 µM (inactive)
C#CCSc1nc(N)c2ncn(C3OC(COP(=O)(O)O)C(O)C3O)c2n1 (configuration not stated) | > 239 µM (inactive) | > 239 µM (inactive) | > 239 µM (inactive) | > 239 µM (inactive) |  | > 239 µM (inactive) | > 239 µM (inactive) |  | 
CC(C)C(CCOS(=O)(=O)O)CCC(C)[C@H]1[C@@H](O)C(O)C2[C@]3(O)C[C@@H](O)C4(O)C[C@@H](O)CC[C@]4(C)C3CC[C@@]21C (some centres not stated) | > 100 µM (inactive) | > 100 µM (inactive) | > 100 µM (inactive) | > 100 µM (inactive) | > 100 µM (inactive) | > 100 µM (inactive) | > 100 µM (inactive) | > 100 µM (inactive) | 
